Measured values published in patent publication US20250090699A1, “FAP TARGETING CYCLIC PEPTIDES AND CONJUGATES THEREOF” (Novartis AG, priority 2023, published 2025).
Counter-ions that a name gives are not always drawn. Starred links: 1 amine or outer side, 2 acyl side, 3 side chain; linkers in the order of their positions; H or OH if unused. Non-standard residues stand in square brackets, D forms with d. Residues, ends and D or L forms follow the SMILES beside them. Groups on a side chain read outwards from the residue. *: point of attachment. F(4amPEG2NHDOTA-Lu) = lutetium complex of (S)-2,2',2''-(10-(1-(4-(2-amino-2-carboxyethyl)phenyl)-3,12-dioxo-5,8-dioxa-2,11-diazatridecan-13-yl)-1,4,7,10-tetraazacyclododecane-1,4,7-triyl)triacetic acid (Phe with 4-aminomethyl-PEG2-DOTA-Lu), O=C([O-])CN1CCN(CC(=O)[O-])CCN(CC(=O)NCCOCCOCC(=O)NCc2ccc(C[C@H](N[*:1])C(=O)[*:2])cc2)CCN(CC(=O)[O-])CC1.[Lu+3]; Piperazinyl(4-CH2COOH) = O=C(O)CN1CCN(*)CC1; X7 = CCCCC[C@@H](O)[C@H](N[*:1])C(=O)[*:2]; AEF = NCCOc1ccc(C[C@H](N)C(=O)O)cc1; NMeF = CN[C@@H](Cc1ccccc1)C(=O)O; Ahp(2) = CCCCC[C@H](N)C(=O)O; CO = O=C([*:1])[*:2]

Legend:
[1] = target: T1, human FAP (Homo sapiens, UniProt Q12884); test: Enzymatic FAP competition assay (Z-Gly-Pro-AMC fluorescence), human FAP; format: biochemical; details: read-out: h. FAP, Enz., IC50
T1 construct: the biotinylated His, Avi tag, human FAP (26-760, FAP-H82Q6); His; Avi tag (biotinylated); purchased AcroBiosystems FAP-H82Q6
T1 sequence (Q12884 26-760): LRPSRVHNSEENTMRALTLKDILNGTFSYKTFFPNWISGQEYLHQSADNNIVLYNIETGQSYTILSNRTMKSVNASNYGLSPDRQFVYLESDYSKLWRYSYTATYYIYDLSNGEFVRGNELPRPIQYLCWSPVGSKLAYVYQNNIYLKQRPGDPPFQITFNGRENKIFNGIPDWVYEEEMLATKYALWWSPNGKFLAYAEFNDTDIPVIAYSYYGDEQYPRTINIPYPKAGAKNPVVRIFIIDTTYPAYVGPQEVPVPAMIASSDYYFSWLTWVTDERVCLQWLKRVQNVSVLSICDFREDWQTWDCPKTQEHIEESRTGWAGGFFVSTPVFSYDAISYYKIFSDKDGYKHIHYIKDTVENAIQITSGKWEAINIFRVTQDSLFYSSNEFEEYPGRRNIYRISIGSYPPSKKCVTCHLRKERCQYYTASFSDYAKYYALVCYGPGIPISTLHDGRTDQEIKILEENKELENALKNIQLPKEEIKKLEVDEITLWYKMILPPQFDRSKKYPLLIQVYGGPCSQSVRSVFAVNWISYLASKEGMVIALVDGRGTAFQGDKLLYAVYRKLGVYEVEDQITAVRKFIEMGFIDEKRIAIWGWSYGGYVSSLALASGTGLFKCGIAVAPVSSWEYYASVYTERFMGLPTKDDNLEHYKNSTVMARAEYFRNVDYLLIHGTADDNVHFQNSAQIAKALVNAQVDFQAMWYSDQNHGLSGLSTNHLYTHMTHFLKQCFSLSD
Experimental: (§1) Peptide potencies (IC50) to inhibit the FAP enzymatic activity were determined using a fluorescence-based assay towards the biotinylated His, Avi tag, human FAP (26-760, FAP-H82Q6) and the biotinylated His, Avi tag, mouse FAP (26-761, FAP-M82Q5). Standard assay conditions consisted of 20 μL total volume in white 384-well plates (Greiner, Ref. 784075), in 50 mM phosphate buffer pH 7.5 containing 150 mM NaCl, 0.05% Tween20 and 1% final DMSO. Tested peptides at 14 different concentrations up to 1 μM were added to 0.01 nM human or mouse FAP. The peptides were incubated for 24 hours together with the protein before adding the substrate 50 μM Z-Gly-Pro-AMC (I-1145 from Bachem). Samples were then incubated at 22-24° C. for 4 h before reading the fluorescence at excitation wavelength of 380 nm and emission wavelength of 460 nm using the Tecan Infinite® M1000 PRO. The high control (100% activity) was not containing any peptide, and an internal potent peptide was added at 10 μM concentration for the low control (100% inhibition). IC50 values were calculated by curve fitting using an in-house developed software (Novartis Helios software application) using the method described by Fomenko et al., 2006 (regression algorithms for nonlinear dose-response curve fitting). Following normalization of activity values for the wells to % inhibition (% inhibition=[(high control-sample)/(high control-low control)]x 100). IC50 fitting was carried out from the duplicated points.

[2] = target: T2, mouse FAP (Mus musculus, UniProt P97321); test: Enzymatic FAP competition assay (Z-Gly-Pro-AMC fluorescence), mouse FAP; format: biochemical; details: read-out: m. FAP, Enz., IC50
T2 construct: biotinylated His, Avi tag, mouse FAP (26-761, FAP-M82Q5); His; Avi tag (biotinylated); purchased AcroBiosystems FAP-M82Q5
T2 sequence (P97321 26-761): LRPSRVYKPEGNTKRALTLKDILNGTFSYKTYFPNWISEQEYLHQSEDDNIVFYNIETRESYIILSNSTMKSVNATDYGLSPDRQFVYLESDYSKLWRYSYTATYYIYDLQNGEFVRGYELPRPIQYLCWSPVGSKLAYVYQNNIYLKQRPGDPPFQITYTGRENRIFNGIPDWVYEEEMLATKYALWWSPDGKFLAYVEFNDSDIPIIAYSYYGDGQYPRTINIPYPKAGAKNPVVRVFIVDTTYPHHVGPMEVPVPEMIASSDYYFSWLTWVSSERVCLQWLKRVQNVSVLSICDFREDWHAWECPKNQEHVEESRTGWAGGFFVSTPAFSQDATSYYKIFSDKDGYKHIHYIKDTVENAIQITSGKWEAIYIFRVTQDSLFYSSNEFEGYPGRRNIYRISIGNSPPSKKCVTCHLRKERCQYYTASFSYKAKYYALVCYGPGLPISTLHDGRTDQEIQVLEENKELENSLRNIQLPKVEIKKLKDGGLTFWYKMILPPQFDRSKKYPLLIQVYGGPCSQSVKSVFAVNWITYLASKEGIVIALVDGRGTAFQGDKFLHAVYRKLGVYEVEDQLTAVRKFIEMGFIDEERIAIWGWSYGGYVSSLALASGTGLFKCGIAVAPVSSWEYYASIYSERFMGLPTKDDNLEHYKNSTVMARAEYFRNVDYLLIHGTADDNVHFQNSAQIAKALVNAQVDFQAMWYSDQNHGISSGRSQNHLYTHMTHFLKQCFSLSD
Experimental: as §1

[3] = target: T2, mouse FAP; test: Surface plasmon resonance (SPR) for peptide affinity, mouse FAP; format: binding
Experimental: Peptide affinities (KD) were determined by SPR using a Biacore™ 8K device (Cytiva) towards the following proteins: biotinylated His, Avi tag, human FAP (26-760, FAP-H82Q6), biotinylated His, Avi tag, mouse FAP (26-761, FAP-M82Q5), His tag, human DPP4 (34-766, DP4-H82E3), all purchased from AcroBiosystems and His tag, mouse DPP4 (29-760, 954-SE) from R&D Systems. The FAP proteins and their homologous were diluted to a concentration of 2 μg/mL into acetate buffer pH 5.5, then immobilized onto a CM5 sensorchip (Cytiva, BR-1005-30) to reach a response around 2000 R U. The running buffer HBS-EP+pH 7.6 (20× from Teknova CAT. No: H8022) contained 10 mM HEPES pH 7.6, 150 mM NaCl, 3 mM EDTA, 0.05% Tween20 and 2% DMSO. Experiments were carried out at 25° C. using a flow rate of 30 μL/min. Compounds were tested in single cycle kinetic mode at 8 different concentrations. Curve fitting was performed using the Biacore™ 8K evaluation software. The sensorgrams were fitted by applying a 1:1 binding model to calculate kinetic rate constants and equilibrium dissociation constants (KD).
For this assay, the setup had the same conditions (flow rate, running buffer, peptide dilution) as described above for the CM5 method. The oligo CAP reagent obtained in the CAPture Kit (Ref. 28920234) was 1/5 diluted into running buffer and used with a contact time of 300 s at a flow rate of 2 μL/min. The human and mouse FAP constructs described above were used (from AcroBiosystems or produced in house). The FAP proteins were diluted to a concentration of 2 μg/mL into acetate pH 5.5, 0.05% Tween20 and used with a contact time of 600 s at a flow rate of 10 μL/min. The peptides were tested with an association time of 280 s followed by a dissociation time of 3000 s at a flow rate of 30 μL/min. The regeneration was done using the regeneration solution (8 M guanidine-HCl, 1 M NaOH) as obtained with a contact time of 270 s at a flow rate of 10 μL/min. […] The compounds marked with an asterisk were tested against human and mouse DDP4.

Compound | IC50 [1] | IC50 [2] | Kd [3]
Gly-Gly-NMePhe-F(4amPEG2NHDOTA-Lu)-Ahp-Trp-Gly-Tyr-Asp-D-Pro (cyclo(GG[NMeF][F(4amPEG2NHDOTA-Lu)][Ahp(2)]WGYD[dP]); also: Lu complex) [Example C15] | 0.003 nM | 0.009 nM | 0.013 nM
CCCCC[C@@H]1NC(=O)[C@H](Cc2ccc(O)cc2)NC(=O)[C@H](Cc2ccccc2)N(C)C(=O)CNC(=O)CNC(=O)[C@H]2CCCN2C(=O)[C@H](CC(N)=O)NC(=O)[C@H](Cc2ccc(O)cc2)NC(=O)CNC(=O)[C@H](Cc2c[nH]c3ccccc23)NC1=O [Example A58, Gly-Gly-NMePhe-Tyr-Ahp-Trp-Gly-Tyr-Asn-D-Pro] (cyclo([Ahp(2)]WGYN[dP]GG[NMeF]Y)) | 19 nM | 46 nM | 75 nM
CCCCC[C@@H](O)[C@@H]1NC(=O)[C@H](Cc2ccc(O)cc2)NC(=O)[C@H](Cc2ccccc2)N(C)C(=O)CNC(=O)CNC(=O)[C@H]2CCCN2C(=O)[C@H](CC(=O)O)NC(=O)[C@H](Cc2ccc(O)cc2)NC(=O)CNC(=O)[C@H](Cc2c[nH]c3ccccc23)NC1=O [Example A34, Gly-Gly-NMePhe-Tyr-Aoc(3R-OH)-Trp-Gly-Tyr-Asp-D-Pro] (cyclo(D[dP]GG[NMeF]Y[X7]WGY)) | 0.055 nM | 0.4 nM | 0.25 nM
CCCCC[C@@H]1NC(=O)[C@H](Cc2ccc(OCCN)cc2)NC(=O)[C@H](Cc2ccccc2)N(C)C(=O)CNC(=O)CNC(=O)[C@H]2CCCN2C(=O)[C@H](CC(=O)O)NC(=O)[C@H](CCCCNC(=O)N2CCN(CC(=O)O)CC2)NC(=O)CNC(=O)[C@H](Cc2c[nH]c3ccccc23)NC1=O [Example A6, 2-((9S,12S,15S,18S,24S,27S,32aR)-18-((1H-indol-3-yl)methyl)-12-(4-(2-aminoethoxy)benzyl)-9-benzyl-24-(4-(4-(carboxymethyl)piperazine-1-carboxamido)butyl)-8-methyl-1,4,7,10,13,16,19,22,25,28-decaoxo-15-pentyldotriacontahydropyrrolo[1,2-a][1,4,7,10,13,16,19,22,25,28]decaazacyclotriacontin-27-yl)acetic acid TFA salt] (cyclo([AEF][Ahp(2)]WGK([CO-Piperazinyl(4-CH2COOH)])D[dP]GG[NMeF])) | 0.071 nM | 0.178 nM | 0.188 nM
